Here are results for 10 compounds from US9062066B2, “Anti-inflammatory compound having inhibitory activity against multiple tyrosine kinases and pharmaceutical composition containing same” (KOREA INSTITUTE OF SCIENCE AND TECHNOLOGY, priority 2010, dated 2015).

Experiment [1] concerns the target c-Src tyrosine kinase (Homo sapiens (Human), UniProt P12931). Briefly: in vitro c-Src tyrosine kinase inhibition (32P-ATP, poly(D4Y)n substrate). The class given is biochemical. The conditions noted are these: 1 uM compound; read-out: % inhibition against c-Src.
The target in experiment [2] is Hck tyrosine kinase (Homo sapiens (Human), UniProt P08631). Briefly: in vitro Hck tyrosine kinase inhibition. The class given is biochemical. The conditions noted are these: 1 uM compound; read-out: % inhibition against Hck.
Chain of Hck tyrosine kinase (P08631 whole entry): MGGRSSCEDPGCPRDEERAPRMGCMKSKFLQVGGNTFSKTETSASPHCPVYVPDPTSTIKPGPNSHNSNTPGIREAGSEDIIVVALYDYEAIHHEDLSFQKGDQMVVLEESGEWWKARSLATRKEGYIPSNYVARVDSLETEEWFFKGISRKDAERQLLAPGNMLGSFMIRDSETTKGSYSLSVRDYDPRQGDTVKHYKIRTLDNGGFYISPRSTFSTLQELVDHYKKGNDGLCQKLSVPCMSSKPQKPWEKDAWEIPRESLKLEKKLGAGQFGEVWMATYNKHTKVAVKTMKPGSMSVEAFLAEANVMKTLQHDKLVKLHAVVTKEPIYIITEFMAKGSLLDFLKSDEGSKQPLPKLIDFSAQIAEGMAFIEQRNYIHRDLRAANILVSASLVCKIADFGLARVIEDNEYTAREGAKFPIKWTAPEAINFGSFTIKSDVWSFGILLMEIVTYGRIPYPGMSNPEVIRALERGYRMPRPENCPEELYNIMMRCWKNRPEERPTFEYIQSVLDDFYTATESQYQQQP
Experiment [3] concerns the target Fgr tyrosine kinase (Homo sapiens (Human), UniProt P09769). Briefly: in vitro Fgr tyrosine kinase inhibition. The conditions noted are these: 1 uM compound; read-out: % inhibition against Fgr. The class given is biochemical.
For experiment [4], the target named is Lyn tyrosine kinase (Homo sapiens (Human), UniProt P07948). As to the kind of experiment: in vitro Lyn tyrosine kinase inhibition. The experiment is classed as biochemical. The conditions noted are these: 1 uM compound; read-out: % inhibition against Lyn.
Chain of Lyn tyrosine kinase (P07948 whole entry, the tested form may be a part): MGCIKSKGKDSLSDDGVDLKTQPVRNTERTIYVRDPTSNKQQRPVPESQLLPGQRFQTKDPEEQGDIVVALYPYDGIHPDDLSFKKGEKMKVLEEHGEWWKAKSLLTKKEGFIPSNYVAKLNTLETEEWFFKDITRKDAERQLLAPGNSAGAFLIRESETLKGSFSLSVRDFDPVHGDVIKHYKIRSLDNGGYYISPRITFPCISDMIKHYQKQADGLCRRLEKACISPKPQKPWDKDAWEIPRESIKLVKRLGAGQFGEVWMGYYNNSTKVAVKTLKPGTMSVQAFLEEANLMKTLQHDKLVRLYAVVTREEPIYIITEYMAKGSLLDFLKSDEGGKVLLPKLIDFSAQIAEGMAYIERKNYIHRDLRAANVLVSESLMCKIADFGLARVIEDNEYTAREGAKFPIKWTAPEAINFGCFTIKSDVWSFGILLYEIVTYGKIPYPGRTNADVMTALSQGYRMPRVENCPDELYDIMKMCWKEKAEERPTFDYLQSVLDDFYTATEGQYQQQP
The target of experiment [5] is DDR1 tyrosine kinase (Homo sapiens (Human), UniProt Q08345). As to the kind of experiment: in vitro DDR1 tyrosine kinase inhibition (GST-fused kinase domain). The settings on record: 1 uM compound; read-out: % inhibition against DDR1. The class given is biochemical.
Chain of DDR1 tyrosine kinase (Q08345 610-905): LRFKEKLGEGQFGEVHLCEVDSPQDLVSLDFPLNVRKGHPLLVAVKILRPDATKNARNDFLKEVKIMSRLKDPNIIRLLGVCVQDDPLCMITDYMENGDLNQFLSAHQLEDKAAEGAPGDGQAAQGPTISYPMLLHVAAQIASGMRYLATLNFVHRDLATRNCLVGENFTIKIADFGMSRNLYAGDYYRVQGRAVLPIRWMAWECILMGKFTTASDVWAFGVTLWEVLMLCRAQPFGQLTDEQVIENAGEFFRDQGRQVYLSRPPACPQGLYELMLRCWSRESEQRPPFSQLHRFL
In experiment [6] the target is DDR2 tyrosine kinase (Homo sapiens (Human), UniProt Q16832). Briefly: in vitro DDR2 tyrosine kinase inhibition (GST-fused kinase domain). The class given is biochemical. The settings on record: 1 uM compound; read-out: % inhibition against DDR2.
Chain of DDR2 tyrosine kinase (Q16832 563-849): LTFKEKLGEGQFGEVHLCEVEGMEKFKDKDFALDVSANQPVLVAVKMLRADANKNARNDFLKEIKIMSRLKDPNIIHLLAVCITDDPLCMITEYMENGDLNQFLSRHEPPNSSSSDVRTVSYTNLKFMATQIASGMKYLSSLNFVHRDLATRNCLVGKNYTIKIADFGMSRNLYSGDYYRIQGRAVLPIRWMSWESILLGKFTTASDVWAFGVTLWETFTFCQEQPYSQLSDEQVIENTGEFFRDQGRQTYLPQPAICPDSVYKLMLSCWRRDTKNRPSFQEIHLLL
In experiment [7] the test system is TNF-α synthesis in J744A.1 macrophages. Briefly: inhibition of TNF-α synthesis in LPS-activated macrophages (ELISA). The experiment is classed as cell-based. The conditions noted are these: Macrophage, 6 h, read-out: Inhibition (%) of TNF-α synthesis. In general terms: In an ELISA, binding on a coated surface is turned into a signal by an enzyme label.
The subject of experiment [8] is NO synthesis in J744A.1 macrophage. Briefly: inhibition of nitric oxide (NO) synthesis in LPS-activated macrophages (Griess reagent). The class given is cell-based. The settings on record: 24 h, read-out: Inhibition (%) of NO synthesis. (The Griess reaction detects nitrite, a stable product of nitric oxide.)
For experiment [9], the system named is α-smooth muscle actin protein expression in skin fibroblast cells. Briefly: inhibition of α-smooth muscle actin expression in fibroblast activated by type I collagen and TGF-β1 (western blotting). The class given is cell-based, Balb/C mouse. The settings on record: Mus musculus, 0.5 uM compound, 10 ng/ml TGF-β1, 48 hours, type I collagen, read-out: Inhibition (%) of α-smooth muscle actin increase. An outline of the steps:
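α-Smooth muscle actin protein was detected by western blotting with chemiluminescence on X-ray film. Levels were quantified by densitometry of the band.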

Experiment [10] deals with mouse skin fibroblast. As to the kind of experiment: inhibition of migration of activated fibroblast (scratch wound). The class given is cell-based. The settings on record: 0.5 uM compound, 10 ng/ml TGF-β1, 24 hours, read-out: Inhibition (%) of migration of activated fibroblast. An outline of the steps: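 Scratch wound was made on a fibroblast monolayer, then cells were kept in DMEM with 10 ng/ml TGF-β1 at 37° C for 24 hours. After formalin fixation and crystal violet staining, cells that had moved into the wound were counted at 100× in five random fields and averaged.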

For experiment [11], the system named is oxazolone-induced skin inflammation of Balb/C mouse ears. As to the kind of experiment: mouse skin inflammatory model induced by oxazolone (ear thickness). The class given is in vivo. The conditions noted are these: 20 ul of 0.1% compound topical on ear, 36 hours after oxazolone. In outline:
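Oxazolone was used to induce skin inflammation in the ears of 8-week-old Balb/C mice. Ear thickness was measured by caliper before induction, again at 36 h to capture inflammatory swelling, and averaged per group (n=4).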

Structures are written as SMILES. A value given as a limit tells only on which side of the number the result lay.

Chain of c-Src tyrosine kinase (P12931 whole entry, looked up): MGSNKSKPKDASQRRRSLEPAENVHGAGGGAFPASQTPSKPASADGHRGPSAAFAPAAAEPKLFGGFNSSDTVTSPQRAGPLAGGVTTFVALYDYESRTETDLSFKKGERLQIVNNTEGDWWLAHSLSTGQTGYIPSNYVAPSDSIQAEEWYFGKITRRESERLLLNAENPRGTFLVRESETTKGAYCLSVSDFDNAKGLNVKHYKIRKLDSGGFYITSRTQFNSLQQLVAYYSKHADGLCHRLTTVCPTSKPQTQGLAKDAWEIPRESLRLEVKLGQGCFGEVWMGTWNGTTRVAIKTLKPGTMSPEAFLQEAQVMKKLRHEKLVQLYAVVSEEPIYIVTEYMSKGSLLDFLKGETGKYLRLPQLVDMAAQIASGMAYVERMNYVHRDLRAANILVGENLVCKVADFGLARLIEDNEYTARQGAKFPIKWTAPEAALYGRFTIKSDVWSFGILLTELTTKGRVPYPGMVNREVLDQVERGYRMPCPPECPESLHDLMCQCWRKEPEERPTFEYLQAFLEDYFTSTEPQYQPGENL
Chain of Fgr tyrosine kinase (P09769 whole entry): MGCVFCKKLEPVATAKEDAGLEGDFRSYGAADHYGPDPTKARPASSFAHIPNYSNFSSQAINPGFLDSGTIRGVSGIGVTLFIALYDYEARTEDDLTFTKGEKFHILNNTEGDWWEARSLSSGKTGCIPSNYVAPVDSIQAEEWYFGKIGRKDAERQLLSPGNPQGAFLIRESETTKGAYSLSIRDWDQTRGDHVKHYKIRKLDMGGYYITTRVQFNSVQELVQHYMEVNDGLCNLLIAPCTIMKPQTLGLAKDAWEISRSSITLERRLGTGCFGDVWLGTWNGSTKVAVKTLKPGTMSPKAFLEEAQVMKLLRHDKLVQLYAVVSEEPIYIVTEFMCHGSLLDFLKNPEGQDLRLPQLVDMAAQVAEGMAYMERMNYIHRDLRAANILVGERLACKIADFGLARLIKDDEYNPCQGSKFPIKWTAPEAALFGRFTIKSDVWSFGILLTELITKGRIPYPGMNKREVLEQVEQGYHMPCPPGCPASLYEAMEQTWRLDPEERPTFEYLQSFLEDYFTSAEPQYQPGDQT

`Oc1cccc(Nc2ncnc3cc(-c4ccc(CN5CCCCC5)o4)sc23)c1` [LCB 03-0088, 3-(6-(5-(piperidin-1-ylmethyl)furan-2-yl)thieno[3,2-d]pyrimidin-4-ylamino)phenol]: the inhibition at 1 µM is over 70% in [1]; over 70% in [2]; over 70% in experiment [3]; over 70% in [4]; over 90% in experiment [5]; over 90% in [6]. Besides, the inhibition at 10 µM came to 73% in experiment [7] and 97% in experiment [8]. The inhibition at 0.5 µM in [9] was 52%; in experiment [10], 27%. Besides, the “Inhibition (%) of increase of ear thickness” value in [11] is given as 51%.

As for `Oc1cccc(Nc2ncnc3cc(-c4ccc(CN5CCOCC5)o4)sc23)c1` [LCB 03-0089, 3-(6-(5-(morpholinomethyl)furan-2-yl)thieno[3,2-d]pyrimidin-4-ylamino)phenol], the inhibition at 1 µM in [1], in experiment [2], in [3], in experiment [4], in [5] and in experiment [6] was over 70% in each case. Moreover, the inhibition at 10 µM stood at 71% in experiment [7] and 86% in [8]. Further, the values for the inhibition at 0.5 µM in [9] and in experiment [10] were 25% and 19%, respectively. Further, in experiment [11], the “Inhibition (%) of increase of ear thickness” value turned out to be 59%.

In the case of `Oc1cccc(Nc2ncnc3cc(-c4ccc(CN5CCNCC5)o4)sc23)c1` [LCB 03-0090, 3-(6-(5-(piperazin-1-ylmethyl)furan-2-yl)thieno[3,2-d]pyrimidin-4-ylamino)phenol], the inhibition at 1 µM in experiment [1], in [2], in experiment [3], in [4], in experiment [5] and in experiment [6] was over 70% in each case. Besides, the results for the inhibition at 10 µM in experiment [7] and in [8] were 63% and 90%, respectively. In addition, the inhibition at 0.5 µM worked out at 44% in experiment [9] and 26% in experiment [10]. The “Inhibition (%) of increase of ear thickness” value in experiment [11] was 56%.

Take `CCNCc1ccc(-c2cc3ncnc(Nc4cccc(O)c4)c3s2)o1` [LCB 03-0091, 3-(6-(5-((ethylamino)methyl)furan-2-yl)thieno[3,2-d]pyrimidin-4-ylamino)phenol]: the inhibition at 1 µM in experiment [1], in experiment [2], in [3], in experiment [4], in [5] and in [6] was over 70% each time. Besides, the inhibition at 10 µM in experiment [7] was 68%; in experiment [8] it was 92%. Moreover, the inhibition at 0.5 µM in experiment [9] and in experiment [10] was 39% each time. For the same compound, the “Inhibition (%) of increase of ear thickness” value in experiment [11] turned out to be 49%.

For the compound `CN1CCN(Cc2ccc(-c3cc4ncnc(Nc5cccc(O)c5)c4s3)s2)CC1` [LCB 03-0092, 3-(6-(5-((4-methylpiperazin-1-yl)methyl)thiophene-2-yl)thieno[3,2-d]pyrimidin-4-ylamino)phenol], the inhibition at 1 µM in [1] is over 60%; in experiment [2], over 60%; in [3], over 50%; in [4], over 60%; in experiment [5], over 80%; in experiment [6], over 80%. Besides, the inhibition at 10 µM in experiment [7] was determined as 64%; in experiment [8], 90%. The inhibition at 0.5 µM in experiment [9] amounted to 37%; in experiment [10], 28%. The “Inhibition (%) of increase of ear thickness” value in experiment [11] is recorded as 47%.

Regarding `Oc1cccc(Nc2ncnc3cc(-c4ccc(CN5CCCCC5)s4)sc23)c1` [LCB 03-0093, 3-(6-(5-(piperidin-1-ylmethyl)thiophene-2-yl)thieno[3,2-d]pyrimidin-4-ylamino)phenol], the inhibition at 1 µM in experiment [1] was over 60%; in experiment [2] it was over 60%; in experiment [3], over 60%; in [4], over 60%; in experiment [5], over 80%; in [6] it was over 80%. Also, the values for the inhibition at 10 µM in experiment [7] and in experiment [8] were 53% and 79%, respectively. In addition, the inhibition at 0.5 µM in experiment [9] turned out to be 43%; in experiment [10], 31%. The “Inhibition (%) of increase of ear thickness” value in experiment [11] worked out at 51%.

For `Oc1cccc(Nc2ncnc3cc(-c4ccc(CN5CCNCC5)s4)sc23)c1` [LCB 03-0094, 3-(6-(5-(piperazin-1-ylmethyl)thiophene-2-yl)thieno[3,2-d]pyrimidin-4-ylamino)phenol], the inhibition at 1 µM was over 60% in experiment [1]; over 60% in experiment [2]; over 60% in [3]; over 60% in experiment [4]; over 80% in experiment [5]; over 80% in [6]. Besides, the inhibition at 10 µM stood at 56% in experiment [7] and 77% in [8]. For the same compound, the inhibition at 0.5 µM in experiment [9] amounted to 41%; in experiment [10] it was 29%. Besides, the “Inhibition (%) of increase of ear thickness” value in experiment [11] is reported as 49%.

Regarding `Oc1cccc(Nc2ccnc3cc(-c4cccc(CN5CCCC5)c4)sc23)c1` [LCB 03-0107, 3-(2-(3-(pyrrolidin-1-ylmethyl)phenyl)thieno[3,2-b]pyridin-7-ylamino)phenol], the inhibition at 1 µM in experiment [1] was over 70%; in experiment [2], over 70%; in experiment [3], over 70%; in [4] it was over 70%; in experiment [5], over 80%; in [6], over 80%. The inhibition at 10 µM in experiment [7] is 45%; in experiment [8], 81%. Also, the inhibition at 0.5 µM in experiment [9] was found to be 71%; in [10], 58%. Also, in experiment [11], the “Inhibition (%) of increase of ear thickness” value is on record as 59%.

As to `CN1CCN(Cc2cccc(-c3cc4nccc(Nc5cccc(O)c5)c4s3)c2)CC1` [LCB 03-0108, 3-(2-(3-((4-methylpiperazin-1-yl)methyl)phenyl)thieno[3,2-b]pyridin-7-ylamino)phenol], the inhibition at 1 µM in experiment [1], in experiment [2], in [3], in experiment [4], in experiment [5] and in [6] was over 80% each time. Besides, the inhibition at 10 µM was found to be 53% in [7] and 92% in [8]. For the same compound, the inhibition at 0.5 µM in [9] amounted to 75%; in experiment [10] it was 56%. Besides, in experiment [11], the “Inhibition (%) of increase of ear thickness” value came to 63%.

Regarding `Oc1cccc(Nc2ccnc3cc(-c4cccc(CN5CCCCC5)c4)sc23)c1` [LCB 03-0109, 3-(2-(3-(piperidin-1-ylmethyl)phenyl)thieno[3,2-b]pyridin-7-ylamino)phenol], the inhibition at 1 µM was over 70% in [1]; over 70% in [2]; over 70% in experiment [3]; over 70% in [4]; over 80% in experiment [5]; over 80% in experiment [6]. For the same compound, the inhibition at 10 µM in experiment [7] worked out at 56%; in experiment [8], 90%. For the same compound, the inhibition at 0.5 µM in [9] was 67%; in experiment [10] it was 48%. For the same compound, the “Inhibition (%) of increase of ear thickness” value in experiment [11] worked out at 52%.
